Measurements published in publication PMC11335192, “Unveiling the crucial role of betaine: modulation of GABA homeostasis via SLC6A1 transporter (GAT1)” (Cellular and Molecular Life Sciences: CMLS, 2024).

Experiments:
Format in all cases: cell-based
rat GAT1 (rGAT1) = target: T1, rat GAT1 (rGAT1) (Rattus norvegicus, UniProt P23978); test: TEVC transport currents in Xenopus oocytes; LC-MS/MS uptake; [3H]-GABA efflux in HEK293-rGAT1 cells
T1 construct: gene Slc6a1

canine BGT-1 (cBGT-1) = target: T2, canine BGT-1 (cBGT-1) (Canis lupus, UniProt P27799); test: TEVC transport currents in Xenopus oocytes
T2 construct: gene SLC6A12
T2 sequence (P27799 1-614): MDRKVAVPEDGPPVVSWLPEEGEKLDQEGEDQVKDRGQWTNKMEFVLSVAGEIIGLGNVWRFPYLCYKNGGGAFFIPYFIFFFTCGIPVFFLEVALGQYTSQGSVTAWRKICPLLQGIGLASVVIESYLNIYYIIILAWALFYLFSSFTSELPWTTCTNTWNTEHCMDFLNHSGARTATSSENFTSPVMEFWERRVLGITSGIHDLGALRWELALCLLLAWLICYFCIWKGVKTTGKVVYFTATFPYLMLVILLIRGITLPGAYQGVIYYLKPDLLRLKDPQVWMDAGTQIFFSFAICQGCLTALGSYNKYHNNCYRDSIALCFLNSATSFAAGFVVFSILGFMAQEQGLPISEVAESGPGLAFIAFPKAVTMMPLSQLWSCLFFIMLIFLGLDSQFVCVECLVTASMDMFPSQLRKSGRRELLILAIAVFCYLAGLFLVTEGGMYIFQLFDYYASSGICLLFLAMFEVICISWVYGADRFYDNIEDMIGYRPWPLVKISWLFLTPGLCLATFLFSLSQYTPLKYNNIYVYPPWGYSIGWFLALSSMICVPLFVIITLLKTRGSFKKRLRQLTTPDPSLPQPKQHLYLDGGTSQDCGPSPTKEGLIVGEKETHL

human GAT1 (hGAT1) = target: T3, human GAT1 (hGAT1) (Homo sapiens, UniProt P30531); test: automated whole-cell patch clamp (Patchliner) on CHO cells overexpressing hGAT1
T3 construct: gene SLC6A1
T3 sequence (P30531 whole entry): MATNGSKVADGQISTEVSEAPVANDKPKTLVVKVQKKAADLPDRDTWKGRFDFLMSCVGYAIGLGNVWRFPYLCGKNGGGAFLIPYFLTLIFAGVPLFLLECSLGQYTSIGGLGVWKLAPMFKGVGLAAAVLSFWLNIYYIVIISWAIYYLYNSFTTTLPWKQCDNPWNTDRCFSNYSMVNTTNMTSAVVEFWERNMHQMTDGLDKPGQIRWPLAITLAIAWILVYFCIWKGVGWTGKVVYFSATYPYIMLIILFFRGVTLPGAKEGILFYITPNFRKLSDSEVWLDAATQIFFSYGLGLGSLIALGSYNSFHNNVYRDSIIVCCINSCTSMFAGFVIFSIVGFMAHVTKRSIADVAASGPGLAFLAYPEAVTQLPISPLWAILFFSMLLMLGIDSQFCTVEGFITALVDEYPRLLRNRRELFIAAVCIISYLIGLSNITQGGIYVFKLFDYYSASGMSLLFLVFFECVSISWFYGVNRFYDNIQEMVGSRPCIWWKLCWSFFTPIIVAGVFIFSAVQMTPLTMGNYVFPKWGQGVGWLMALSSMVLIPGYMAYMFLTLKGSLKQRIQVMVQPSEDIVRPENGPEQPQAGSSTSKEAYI

With `C[N+](C)(C)CC(=O)O` [Betaine] as the molecule, how does the EC50 (rat GAT1 (rGAT1)) read?
The EC50 was 11.6 mM.

And the EC50 (canine BGT-1 (cBGT-1))?
Its EC50 is 1.69 mM.

And the EC50 (human GAT1 (hGAT1))?
Its EC50 is ~27 mM.
